According to ChEMBL document CHEMBL4373688 (Medchemcomm, 2019):

Legend:
[1] = molecular target: Vascular endothelial growth factor receptor 2 (Homo sapiens, UniProt P35968)
Description: Inhibition of human VEGFR2 (805 to 1171 residues) by ELISA

[2] = molecular target: Fibroblast growth factor receptor 3 (Homo sapiens, UniProt P22607); assay: biochemical; format: cell-based, Sf9
Description: Inhibition of wild type His-tagged human FGFR3 (455 to 763 residues) expressed in Sf9 insect cells by ELISA

[3] = species: Homo sapiens; assay: Selectivity ratio of IC50 for wild type His-tagged human FGFR3 (455 to 763 residues) expressed in Sf9 insect cells to IC50 for human VEGFR2 (805 to 1171 residues)

Chain of Fibroblast growth factor receptor 3 (P22607 whole entry, the tested form may be a part): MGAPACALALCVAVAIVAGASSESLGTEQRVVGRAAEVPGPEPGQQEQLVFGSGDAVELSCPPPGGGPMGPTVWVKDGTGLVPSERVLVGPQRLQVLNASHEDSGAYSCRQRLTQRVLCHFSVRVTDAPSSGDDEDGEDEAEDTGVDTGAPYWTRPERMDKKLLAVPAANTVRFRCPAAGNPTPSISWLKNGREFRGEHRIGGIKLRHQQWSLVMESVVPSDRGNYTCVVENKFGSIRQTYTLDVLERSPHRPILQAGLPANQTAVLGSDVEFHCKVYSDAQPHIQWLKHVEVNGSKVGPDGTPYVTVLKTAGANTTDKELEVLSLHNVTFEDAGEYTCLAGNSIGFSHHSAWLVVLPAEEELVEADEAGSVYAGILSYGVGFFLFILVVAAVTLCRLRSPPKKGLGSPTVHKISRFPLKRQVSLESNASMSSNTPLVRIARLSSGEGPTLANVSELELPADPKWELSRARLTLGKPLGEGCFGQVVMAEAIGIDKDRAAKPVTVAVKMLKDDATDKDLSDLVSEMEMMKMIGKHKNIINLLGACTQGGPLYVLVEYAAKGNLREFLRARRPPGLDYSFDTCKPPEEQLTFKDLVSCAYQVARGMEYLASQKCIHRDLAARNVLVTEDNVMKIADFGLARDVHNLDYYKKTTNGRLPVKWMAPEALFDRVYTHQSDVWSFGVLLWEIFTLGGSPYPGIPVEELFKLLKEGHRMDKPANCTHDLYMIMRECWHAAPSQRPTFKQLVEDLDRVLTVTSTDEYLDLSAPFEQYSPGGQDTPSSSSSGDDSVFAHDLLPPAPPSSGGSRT
Chain of Vascular endothelial growth factor receptor 2 (P35968 whole entry): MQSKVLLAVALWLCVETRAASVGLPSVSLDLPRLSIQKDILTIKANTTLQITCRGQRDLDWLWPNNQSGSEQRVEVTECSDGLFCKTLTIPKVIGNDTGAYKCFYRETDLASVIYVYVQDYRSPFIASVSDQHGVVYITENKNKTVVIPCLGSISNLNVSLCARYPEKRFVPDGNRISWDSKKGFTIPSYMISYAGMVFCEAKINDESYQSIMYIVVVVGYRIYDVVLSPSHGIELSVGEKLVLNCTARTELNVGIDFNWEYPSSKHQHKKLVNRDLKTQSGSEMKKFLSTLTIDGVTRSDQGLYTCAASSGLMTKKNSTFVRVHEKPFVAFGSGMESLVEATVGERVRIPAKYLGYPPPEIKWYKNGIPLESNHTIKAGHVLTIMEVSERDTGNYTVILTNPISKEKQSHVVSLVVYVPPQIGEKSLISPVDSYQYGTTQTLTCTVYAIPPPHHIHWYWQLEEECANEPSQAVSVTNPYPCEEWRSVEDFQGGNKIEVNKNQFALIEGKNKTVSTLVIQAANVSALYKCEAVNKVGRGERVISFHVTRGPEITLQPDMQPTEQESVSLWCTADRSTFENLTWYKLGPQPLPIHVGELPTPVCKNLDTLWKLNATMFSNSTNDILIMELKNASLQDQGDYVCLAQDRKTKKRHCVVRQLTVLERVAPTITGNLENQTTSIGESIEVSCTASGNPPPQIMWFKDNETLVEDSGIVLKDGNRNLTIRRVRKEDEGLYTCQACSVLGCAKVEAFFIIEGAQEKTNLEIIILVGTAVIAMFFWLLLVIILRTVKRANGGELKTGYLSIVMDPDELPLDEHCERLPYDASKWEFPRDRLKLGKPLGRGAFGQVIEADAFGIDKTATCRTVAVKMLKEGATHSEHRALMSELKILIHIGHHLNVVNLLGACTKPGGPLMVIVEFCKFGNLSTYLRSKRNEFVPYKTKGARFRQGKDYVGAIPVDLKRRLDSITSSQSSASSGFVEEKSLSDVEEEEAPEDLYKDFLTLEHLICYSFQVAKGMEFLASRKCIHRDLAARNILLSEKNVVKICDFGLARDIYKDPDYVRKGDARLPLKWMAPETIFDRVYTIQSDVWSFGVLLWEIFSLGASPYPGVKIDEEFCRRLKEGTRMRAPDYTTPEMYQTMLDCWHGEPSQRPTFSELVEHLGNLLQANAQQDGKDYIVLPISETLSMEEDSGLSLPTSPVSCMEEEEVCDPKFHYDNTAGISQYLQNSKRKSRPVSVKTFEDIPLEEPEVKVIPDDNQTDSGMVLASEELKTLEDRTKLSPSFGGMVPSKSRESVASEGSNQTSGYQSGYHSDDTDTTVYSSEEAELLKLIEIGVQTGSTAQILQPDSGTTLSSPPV

Row | Compound | IC50 [1] [µM] | IC50 [2] [µM] | Ratio IC50 [3]
1 | Cn1cc(-c2cnc3ccc(Cl)cc3n2)cn1 | 0.46 | 6.5 | –
2 | Nc1ccc2nccnc2c1 | 140 | 120 | –
3 | COc1ccc(CNc2ccc3ncc(-c4cnn(C)c4)nc3c2)c(OC)c1 | 5.5 | 0.33 | 15
4 | COc1cc(Nc2ccc3ncc(-c4cnn(C)c4)nc3c2)cc(OC)c1 | 0.56 | 0.012 | –
